Experimental data as given in patent US20250368627A1, “PYRAZOLESULFONAMIDES AS ANTITUMOR AGENTS” (Peloton Therapeutics, Inc., a fully owned subsidiary of …, priority 2019, published 2025).

Key:
[1] = target: T1, DDB1DB/DCAF15 and RBM39 R1R2 complex (Homo sapiens, UniProt Q14498+Q66K64); assay: DCAF15 RBM39 Complex Formation Assay (FRET); type: binding; settings: FRET ratio Em 665/Em 615, incubated overnight at 4° C.
T1 construct: Amino acids 150 to 331 of RBM39 were cloned into pGEX4T3; GST (from vector pGEX4T3); TEV cleavage site (N); made in house; host or cells: DDB1DB/His-DCAF15: baculovirus/Sf9 co-expression; RBM39 R1R2: E. coli (pGEX4T3)
T1 sequence (Q66K64 whole entry, the tested form may be a part): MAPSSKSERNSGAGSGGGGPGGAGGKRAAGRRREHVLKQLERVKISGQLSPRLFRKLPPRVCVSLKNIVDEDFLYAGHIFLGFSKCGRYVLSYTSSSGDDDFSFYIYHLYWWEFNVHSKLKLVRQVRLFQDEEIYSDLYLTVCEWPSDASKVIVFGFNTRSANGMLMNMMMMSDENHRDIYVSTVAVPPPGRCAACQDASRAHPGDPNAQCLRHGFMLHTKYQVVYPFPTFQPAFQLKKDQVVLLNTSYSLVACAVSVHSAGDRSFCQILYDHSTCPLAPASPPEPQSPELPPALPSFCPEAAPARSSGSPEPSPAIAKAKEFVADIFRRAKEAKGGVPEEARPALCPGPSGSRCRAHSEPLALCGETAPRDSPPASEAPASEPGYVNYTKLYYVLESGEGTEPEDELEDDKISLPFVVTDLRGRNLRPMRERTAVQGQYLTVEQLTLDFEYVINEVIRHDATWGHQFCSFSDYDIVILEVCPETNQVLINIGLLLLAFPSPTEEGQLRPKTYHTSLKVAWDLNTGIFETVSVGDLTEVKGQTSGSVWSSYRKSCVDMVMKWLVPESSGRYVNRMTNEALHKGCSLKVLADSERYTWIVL
T1 sequence (Q14498 150-331): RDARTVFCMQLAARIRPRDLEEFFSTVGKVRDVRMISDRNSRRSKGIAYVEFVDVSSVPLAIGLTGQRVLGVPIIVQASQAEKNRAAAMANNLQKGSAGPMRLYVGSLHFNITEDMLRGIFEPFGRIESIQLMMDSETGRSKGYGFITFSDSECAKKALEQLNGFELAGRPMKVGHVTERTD
T1 sequence (Q16531 with tags, fused parts or gaps DEL396-708 partner): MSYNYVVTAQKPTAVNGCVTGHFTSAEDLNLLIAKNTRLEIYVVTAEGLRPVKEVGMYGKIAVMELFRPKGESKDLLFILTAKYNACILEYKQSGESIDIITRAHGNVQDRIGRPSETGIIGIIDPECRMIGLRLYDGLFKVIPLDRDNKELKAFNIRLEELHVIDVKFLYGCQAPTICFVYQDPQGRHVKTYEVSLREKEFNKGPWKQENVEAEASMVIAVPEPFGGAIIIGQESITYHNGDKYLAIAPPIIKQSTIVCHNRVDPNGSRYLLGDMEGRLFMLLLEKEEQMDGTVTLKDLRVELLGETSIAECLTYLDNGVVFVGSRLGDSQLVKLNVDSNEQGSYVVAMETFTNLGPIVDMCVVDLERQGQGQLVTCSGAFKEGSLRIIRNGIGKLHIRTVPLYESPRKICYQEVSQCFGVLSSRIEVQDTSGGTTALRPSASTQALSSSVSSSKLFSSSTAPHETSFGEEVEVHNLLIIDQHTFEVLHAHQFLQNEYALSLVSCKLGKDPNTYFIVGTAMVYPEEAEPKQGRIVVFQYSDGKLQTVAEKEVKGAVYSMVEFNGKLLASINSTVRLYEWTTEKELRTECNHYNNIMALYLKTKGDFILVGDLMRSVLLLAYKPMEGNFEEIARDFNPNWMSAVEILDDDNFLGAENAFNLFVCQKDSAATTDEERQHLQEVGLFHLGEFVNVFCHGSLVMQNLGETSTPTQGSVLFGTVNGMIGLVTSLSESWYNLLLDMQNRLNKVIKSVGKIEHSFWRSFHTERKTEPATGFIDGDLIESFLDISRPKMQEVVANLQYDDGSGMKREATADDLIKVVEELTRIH
Outline: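 Ternary complex formation read by TR-FRET (Em 665/615, excitation 340 nm) after overnight incubation at 4° C of 20 nM baculovirus DDB1DB/His-DCAF15 and 50 nM E. coli RBM39 RRM1-RRM2 FLAG fragment with 14-point, 3-fold compound dilutions from 1 μM; EC50 from 4-parameter fit.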

[2] = test system: HCT116 human colorectal carcinoma cells; assay: CellTiter-Glo Luminescent Cell Viability Assay; type: cell-based; settings: HCT-116, 72 h, 3 days
Outline: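 CellTiter-Glo luminescence gave viability after 3 days of compound exposure in HCT116 cells grown in DMEM/10% FBS. Final concentrations ran from 5 to 0.0002 […] in 1:3 steps, each in triplicate, with IC50 derived from the curves.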

IC50 [1] [nM]	EC50 [2] [nM]	SMILES
< 250	< 250	N#CCC1(n2cc(S(=O)(=O)Nc3ccc(Cl)c4c(Cl)c[nH]c34)cn2)COC1 [Compound 160, 1-[3-(cyanomethyl)oxetan-3-yl]-N-(3,4-dichloro-1H-indol-7-yl)pyrazole-4-sulfonamide]
< 250	250 to 1000	N#Cc1c[nH]c2c(NS(=O)(=O)c3cnn(CCO)c3)ccc(Cl)c12 [Compound 162, N-(4-chloro-3-cyano-1H-indol-7-yl)-1-(2-hydroxyethyl)pyrazole-4-sulfonamide]
< 250	250 to 1000	CC(C)(CO)n1cc(S(=O)(=O)Nc2ccc(Cl)c3c(Cl)c[nH]c23)cn1 [Compound 170, N-(3,4-dichloro-1H-indol-7-yl)-1-(2-hydroxy-1,1-dimethyl-ethyl)pyrazole-4-sulfonamide]
< 250	< 250	CC(C)(CO)n1cc(S(=O)(=O)Nc2ccc(Cl)c3c(C#N)c[nH]c23)cn1 [Compound 171, N-(4-chloro-3-cyano-1H-indol-7-yl)-1-(2-hydroxy-1,1-dimethyl-ethyl)pyrazole-4-sulfonamide]
< 250	250 to 1000	N#Cc1c[nH]c2c(NS(=O)(=O)c3cnn([C@H]4C[C@@H](O)C4)c3)ccc(Cl)c12 [Compound 174, N-(4-chloro-3-cyano-1H-indol-7-yl)-1-(3-hydroxycyclobutyl)pyrazole-4-sulfonamide]
< 250	250 to 1000	N#Cc1c[nH]c2c(NS(=O)(=O)c3cnn(CC4(O)CCC4)c3)ccc(Cl)c12 [Compound 179, N-(4-chloro-3-cyano-1H-indol-7-yl)-1-[(1-hydroxycyclobutyl)methyl]pyrazole-4-sulfonamide]
< 250	< 250	Cn1ncc(S(=O)(=O)Nc2ccc(Cl)c3c(C#N)c[nH]c23)c1N [Compound 180, 5-amino-N-(4-chloro-3-cyano-1H-indol-7-yl)-1-methyl-pyrazole-4-sulfonamide]
< 250	< 250	CS(=O)(=O)Cn1cc(S(=O)(=O)Nc2ccc(Cl)c3c(Cl)c[nH]c23)cn1 [Compound 181, N-(3,4-dichloro-1H-indol-7-yl)-1-(methylsulfonylmethyl)pyrazole-4-sulfonamide]
< 250	250 to 1000	CC(C)(O)Cn1ncc(S(=O)(=O)Nc2ccc(Cl)c3c(C#N)c[nH]c23)c1F [Compound 188, N-(4-chloro-3-cyano-1H-indol-7-yl)-5-fluoro-1-(2-hydroxy-2-methyl-propyl)pyrazole-4-sulfonamide]
< 250	250 to 1000	COC1CC(n2cc(S(=O)(=O)Nc3cccc4c(Cl)c[nH]c34)cn2)C1 (stereo not drawn) [Compound 190, N-(3-chloro-1H-indol-7-yl)-1-(3-methoxycyclobutyl)pyrazole-4-sulfonamide]
< 250	> 1000	CC(C)(O)Cn1cc(S(=O)(=O)Nc2ccc(F)c3c(C#N)c[nH]c23)cn1 [Compound 192, N-(3-cyano-4-fluoro-1H-indol-7-yl)-1-(2-hydroxy-2-methyl-propyl)pyrazole-4-sulfonamide]
< 250	> 1000	O=S(=O)(Nc1cccc2c(Cl)c[nH]c12)c1cnn([C@H]2C[C@@H](O)C2)c1 [Compound 194, N-(3-chloro-1H-indol-7-yl)-1-(3-hydroxycyclobutyl)pyrazole-4-sulfonamide]

Further lines, the molecule ahead of its results:

SMILES	IC50 [1] [nM]	EC50 [2] [nM]
Cc1ccc(NS(=O)(=O)c2cnn(C)c2N)c2[nH]cc(C#N)c12 [Compound 161, 5-amino-N-(3-cyano-4-methyl-1H-indol-7-yl)-1-methyl-pyrazole-4-sulfonamide]	< 250	< 250
O=S(=O)(Nc1ccc(Cl)c2c(Cl)c[nH]c12)c1cnn(CCO)c1 [Compound 163, N-(3,4-dichloro-1H-indol-7-yl)-1-(2-hydroxyethyl)pyrazole-4-sulfonamide]	< 250	< 250
N#Cc1c[nH]c2c(NS(=O)(=O)c3cnn(C(CO)(CO)CCl)c3)ccc(Cl)c12 [Compound 164, N-(4-chloro-3-cyano-1H-indol-7-yl)-1-[1-(chloromethyl)-2-hydroxy-1-(hydroxymethyl)ethyl]pyrazole-4-sulfonamide]	< 250	250 to 1000
N#Cc1c[nH]c2c(NS(=O)(=O)c3cnn(C4(CO)COC4)c3)ccc(Cl)c12 [Compound 165, N-(4-chloro-3-cyano-1H-indol-7-yl)-1-[3-(hydroxymethyl)oxetan-3-yl]pyrazole-4-sulfonamide]	< 250	250 to 1000
O=S(=O)(Nc1ccc(Cl)c2c(Cl)c[nH]c12)c1cnn(C(CO)(CO)CCl)c1 [Compound 166, 1-[1-(chloromethyl)-2-hydroxy-1-(hydroxymethyl)ethyl]-N-(3,4-dichloro-1H-indol-7-yl)pyrazole-4-sulfonamide]	< 250	250 to 1000
O=S(=O)(Nc1ccc(Cl)c2c(Cl)c[nH]c12)c1cnn(C2(CO)COC2)c1 [Compound 167, N-(3,4-dichloro-1H-indol-7-yl)-1-[3-(hydroxymethyl)oxetan-3-yl]pyrazole-4-sulfonamide]	< 250	250 to 1000
COC(=O)C(C)(C)n1cc(S(=O)(=O)Nc2ccc(Cl)c3c(Cl)c[nH]c23)cn1 [Compound 168, methyl 2-[4-[3,4-dichloro-1H-indol-7-yl)sulfamoyl]pyrazol-1-yl]-2-methyl-propanoate]	< 250	250 to 1000
COC(=O)C(C)(C)n1cc(S(=O)(=O)Nc2ccc(Cl)c3c(C#N)c[nH]c23)cn1 [Compound 169, methyl 2-[4-[(4-chloro-3-cyano-1H-indol-7-yl)sulfamoyl]pyrazol-1-yl]-2-methyl-propanoate]	< 250	250 to 1000
CC(CO)n1cc(S(=O)(=O)Nc2ccc(Cl)c3c(Cl)c[nH]c23)cn1 (stereo not drawn) [Compound 172, N-(3,4-dichloro-1H-indol-7-yl)-1-(2-hydroxy-1-methyl-ethyl)pyrazole-4-sulfonamide]	< 250	250 to 1000
CC(CO)(CO)n1cc(S(=O)(=O)Nc2ccc(Cl)c3c(Cl)c[nH]c23)cn1 [Compound 173, N-(3,4-dichloro-1H-indol-7-yl)-1-[2-hydroxy-1-(hydroxymethyl)-1-methyl-ethyl]pyrazole-4-sulfonamide]	< 250	< 250
N#Cc1c[nH]c2c(NS(=O)(=O)c3cnn([C@H]4C[C@H](O)C4)c3)ccc(Cl)c12 [Compound 175, N-(4-chloro-3-cyano-1H-indol-7-yl)-1-(3-hydroxycyclobutyl)pyrazole-4-sulfonamide]	< 250	250 to 1000
O=S(=O)(Nc1ccc(Cl)c2c(Cl)c[nH]c12)c1cnn(C(CO)CO)c1 [Compound 176, N-(3,4-dichloro-1H-indol-7-yl)-1-[2-hydroxy-1-(hydroxymethyl)ethyl]pyrazole-4-sulfonamide]	< 250	250 to 1000
CC(C)(O)Cn1cc(S(=O)(=O)Nc2ccc(Cl)c3c(Cl)c[nH]c23)cn1 [Compound 177, N-(3,4-dichloro-1H-indol-7-yl)-1-(2-hydroxy-2-methyl-propyl)pyrazole-4-sulfonamide]	< 250	250 to 1000
CC(C)(N)Cn1cc(S(=O)(=O)Nc2ccc(Cl)c3c(C#N)c[nH]c23)cn1 [Compound 178, 1-(2-amino-2-methyl-propyl)-N-(4-chloro-3-cyano-1H-indol-7-yl)pyrazole-4-sulfonamide]	< 250	> 1000
CS(=O)(=O)Cn1cc(S(=O)(=O)Nc2ccc(Cl)c3c(C#N)c[nH]c23)cn1 [Compound 182, N-(4-chloro-3-cyano-1H-indol-7-yl)-1-(methylsulfonylmethyl)pyrazole-4-sulfonamide]	< 250	250 to 1000
N#Cc1c[nH]c2c(NS(=O)(=O)c3cnn(CC4(C#N)CC4)c3)ccc(Cl)c12 [Compound 183, N-(4-chloro-3-cyano-1H-indol-7-yl)-1-[(1-cyanocyclopropyl)methyl]pyrazole-4-sulfonamide]	< 250	250 to 1000
N#Cc1c[nH]c2c(NS(=O)(=O)c3cnn(CC4(O)CCOCC4)c3)ccc(Cl)c12 [Compound 184, N-(4-chloro-3-cyano-1H-indol-7-yl)-1-[(4-hydroxytetrahydropyran-4-yl)methyl]pyrazole-4-sulfonamide]	< 250	> 1000
COC1CC(n2cc(S(=O)(=O)Nc3ccc(Cl)c4c(C#N)c[nH]c34)cn2)C1 (stereo not drawn) [Compound 189, N-(4-chloro-3-cyano-1H-indol-7-yl)-1-(3-methoxycyclobutyl)pyrazole-4-sulfonamide]	< 250	250 to 1000
N#Cc1c[nH]c2c(NS(=O)(=O)c3cnn(C4(CO)CCC4)c3)ccc(Cl)c12 [Compound 191, N-(4-chloro-3-cyano-1H-indol-7-yl)-1-[1-(hydroxymethyl)cyclobutyl]pyrazole-4-sulfonamide]	< 250	< 250
Cc1ccc(NS(=O)(=O)c2cnn([C@H]3C[C@@H](O)C3)c2)c2[nH]cc(C#N)c12 [Compound 193, N-(3-cyano-4-methyl-1H-indol-7-yl)-1-(3-hydroxycyclobutyl)pyrazole-4-sulfonamide]	< 250	250 to 1000
N#Cc1c[nH]c2c(NS(=O)(=O)c3cnn(CC4(CO)CC4)c3)ccc(Cl)c12 [Compound 195, N-(4-chloro-3-cyano-1H-indol-7-yl)-1-[[1-(hydroxymethyl)cyclopropyl]methyl]pyrazole-4-sulfonamide]	< 250	250 to 1000
